Where two headings read alike, the source gives them in different places.
Key:
[1] = PK study: plasma and brain levels in mice; type: in vivo; details: male C57BL/6 mice, 50 mg/kg oral; for concentration at 0.5 h / concentration at 4 h: mouse; for concentration at 0.5 h: 0.5 hr post dosing; for concentration at 4 h: 4 hr post dosing
Description: 9-10 week old male C57BL/6 mice were dosed orally with 50 mg/kg of the test compound formulated in 5% w/v tween 80 and 0.5% methyl cellulose. At 0.5 and 4 h post dosing, whole blood was collected, animals were sacrificed and brain tissues were collected. The blood samples were immediately placed on ice, and centrifuged within 60 min at 4° C. for 3 min at 14000 rpm to obtain plasma. Plasma was transferred by pipette to pre-labeled Eppendorf tubes, stored at −80° C. until analyzed.
Brain tissue samples were collected and rinsed with fresh ice cold 0.9% NaCl solution, dried quickly and thereafter frozen on dry ice/liquid nitrogen and stored at −70±10° C. until analyzed. Homogenization was done using phosphate buffer saline and used for analysis. Bioanalysis was performed using LC-MS/MS (API 4000).

[2] = target: T1, Human BACH1 (Homo sapiens, UniProt O14867); test: Microscale thermophoresis (MST) assay / Bach 1 binding assay; details: 10 nM fluorescently labeled BACH1(aa179-736), 25° C.
T1 construct: 10×HIS-GP-BACH1(aa179-736)-Thrombin-FLAG; 10xHis (N); GP linker (Gly-Pro) (N); Thrombin cleavage site (C); FLAG (C); host or cells: Sf9 insect cells
T1 sequence (O14867 179-736): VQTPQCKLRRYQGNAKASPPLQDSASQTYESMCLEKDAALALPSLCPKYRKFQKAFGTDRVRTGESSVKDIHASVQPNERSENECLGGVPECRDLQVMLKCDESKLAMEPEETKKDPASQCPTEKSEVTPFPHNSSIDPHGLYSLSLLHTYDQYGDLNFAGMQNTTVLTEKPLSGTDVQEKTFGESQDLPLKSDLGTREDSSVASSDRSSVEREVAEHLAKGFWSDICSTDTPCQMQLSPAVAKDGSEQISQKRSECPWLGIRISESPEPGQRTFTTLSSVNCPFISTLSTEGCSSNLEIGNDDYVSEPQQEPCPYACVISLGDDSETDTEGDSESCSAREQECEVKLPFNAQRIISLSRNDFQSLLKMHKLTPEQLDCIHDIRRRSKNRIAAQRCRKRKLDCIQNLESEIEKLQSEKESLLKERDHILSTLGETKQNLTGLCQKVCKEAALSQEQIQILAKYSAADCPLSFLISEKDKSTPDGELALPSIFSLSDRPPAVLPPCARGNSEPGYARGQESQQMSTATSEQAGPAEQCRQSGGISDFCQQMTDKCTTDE
Description: Example 146. Microscale Thermophoresis (MST) Assay/Bach 1 Binding Assay
Outline of Protein Expression/Production
Human BACH1 (construct-ID: 10×HIS-GP-BACH1(aa179-736)-Thrombin-FLAG) was expressed in Sf9 insect cells. Protein purification was performed using affinity chromatography, followed by size-exclusion chromatography. Quality of resulting protein was judged using SDS-PAGE analysis.
The MST technology is based on measurement of protein movement along a temperature gradient. Thereby, fluorescently labeled protein is loaded into capillaries, where an infrared laser heats a small volume. Before and during heating, fluorescent intensity is measured at the site of irradiation and the loss of fluorescence in the IR laser focus is quantified.
Two major factors contribute to change of fluorescence signal. First of all, the so-called TRIC (Temperature Related Intensity Change) effect is caused by the temperature-dependency of fluorophore's quantum yield. Herein, the extent of the temperature dependence depends on the chemical environment, which may be changed by the binding of a ligand (e.g. compound, peptide) to the target. Moreover, Kd value between ligand and target can depend on temperature. Second, thermophoresis, which is defined as movement of fluorescent molecules along temperature gradient, is a major contributor to change of fluorescence. Hereby, protein movement along the gradient depends on hydrodynamic radius, charge and hydration shell. These properties can change upon association of the labeled protein with another species, e.g. compound. Thereby, MST detects the differences in protein movement with increasing ligand concentration: from this, the fraction of ligand bound protein and a Kd value can be determined.
For Kd determination of compounds binding BACH1, the following protocol was applied: 10×HIS-GP-BACH1(aa179-736)-Thrombin-FLAG (expressed and purified at Proteros) was fluorescently labeled via its lysine-residues (2nd gen NHS-NT.647 dye).
Experiments were performed using the experimental device Monolith NT.115 Pico, NanoTemper Technologies, with MST power set to medium and excitation power set to 2% at a reaction temperature of 25° C.
10 nM fluorescently labeled BACH1 was applied to reaction buffer containing 50 mM HEPES pH 8.0, 100 mM NaCl, 5% glycerol, 0.05% Tween20 and 1 mM DTT in a reaction volume of 8 μL using Monolith NT.115 Premium Capillaries. Compounds were applied at a maximal concentration of 103 μM with 15 subsequent factor 2 dilutions.

[3] = brain, read-out: Brain (ng/g) 0.5 hr
[4] = plasma, read-out: Plasma (ng/ml) 0.5 hr
[5] = plasma, read-out: Plasma (ng/ml) 4 hr

Cn1c(Nc2nc3ccccc3o2)nc2cc(C(=O)NCCOCCO)ccc21 [Example 17, 2-(benzo[d]oxazol-2-ylamino)-N-(2-(2-hydroxyethoxy)ethyl)-1-methyl-1H-benzo[d]imidazole-5-carboxamide]
concentration at 0.5 h [1, 3]: 188 ± 83 ng/g
concentration at 0.5 h [1, 4]: 4240 ± 771 ng/mL
concentration at 4 h [1, 5]: 72 ± 38 ng/mL
Kd [2]: 250 nM

COCCNC(=O)c1ccc2c(c1)nc(Nc1nc3ccc(OCCOC)cc3o1)n2C [Example 56, 2-((6-(2-methoxyethoxy)benzo[d]oxazol-2-yl)amino)-N-(2-methoxyethyl)-1-methyl-1H-benzo[d]imidazole-5-carboxamide]
brain penetration (in words) [1]: good brain penetration
concentration at 0.5 h [1, 3]: 4230 ± 600 ng/g
concentration at 4 h ([1]; brain, read-out: Brain (ng/g) 4 hr): 122 ± 153 ng/g
concentration at 0.5 h [1, 4]: 4240 ± 428 ng/mL
concentration at 4 h [1, 5]: 281 ± 318 ng/mL
Kd [2]: 250 nM
